Laboratory results: ChEMBL document CHEMBL5143561, “Neopestolides A-D, Diphenyl Ether Derivatives from the Plant Endophytic Fungus Neopestalotiopsis sp” (J Nat Prod, 2022)

Key:
Assay type in all cases: functional, cell-based
HepG2 = assay: Antiproliferative activity against human HepG2 cells assessed as reduction in cell viability measured after 72 hrs by MTT assay; settings: HepG2, 72 h
J82 = assay: Antiproliferative activity against human J82 cells assessed as reduction in cell viability measured after 72 hrs by MTT assay; settings: J82, 72 h
SK-BR-3 = assay: Antiproliferative activity against human SK-BR-3 cells assessed as reduction in cell viability measured after 72 hrs by MTT assay; settings: SK-BR-3, 72 h
HCT-116 = assay: Antiproliferative activity against human HCT-116 cells assessed as reduction in cell viability measured after 72 hrs by MTT assay; settings: HCT-116, 72 h

SMILES	IC50 (HepG2)	IC50 (J82)	IC50 (SK-BR-3)	IC50 (HCT-116)
C=C1CO[C@@H](c2ccc3c(c2OC)C(=O)OCc2cc(C)cc(O)c2O3)[C@@H]1O	21.6 µM	> 100 µM	> 100 µM	20.7 µM
C=C1CO[C@H](c2ccc3c(c2OC)C(=O)OCc2cc(C)cc(O)c2O3)[C@H]1O	30.1 µM	> 100 µM	86.5 µM	57.1 µM
COc1c([C@@H]2OC[C@@](C)(O)[C@H]2O)ccc2c1C(=O)OCc1cc(C)cc(O)c1O2	99.7 µM	> 100 µM	88.5 µM	74.3 µM
C=C(C)[C@H](C)[C@H](O)c1ccc2c(c1OC)C(=O)OCc1cc(C)cc(O)c1O2	12.4 µM	62.4 µM	43.8 µM	22.4 µM
C=C1COC(c2ccc3c(c2OC)C(=O)OCc2cc(C)cc(O)c2O3)C1O (racemic)	16.8 µM	> 100 µM	29.1 µM	45.6 µM
COc1c(/C=C/[C@@](C)(O)CO)ccc2c1C(=O)OCc1cc(C)cc(O)c1O2	70.1 µM	> 100 µM	> 100 µM	79.3 µM
COc1c([C@H]2OC[C@@](C)(O)[C@H]2O)ccc2c1C(=O)OCc1cc(C)cc(O)c1O2	80.1 µM	> 100 µM	> 100 µM	47.1 µM
